Source: patent publication US10633389B2, “CARM1 inhibitors and uses thereof” (Epizyme, Inc., priority 2013, dated 2020)

Test system: asymmetric di-methyl PABP1 in RKO cells
Assay: RKO methylation assay, In Cell Western (ICW) for asymmetric di-methyl PABP1
Assay type: cell-based
Settings: Homo sapiens, RKO, Cellular potencies, ICW PABP1me2a
Description: RKO adherent cells were purchased from ATCC (American Type Culture Collection), Manassas, Va., USA. DMEM/Glutamax medium, penicillin-streptomycin, heat inactivated fetal bovine serum, 0.05% trypsin and D-PBS were purchased from Life Technologies, Grand Island, N.Y., USA. Odyssey blocking buffer, 800 CW goat anti-rabbit IgG (H+L) antibody, and Licor Odyssey infrared scanner were purchased from Licor Biosciences, Lincoln, Nebr., USA. Asymmetric di-methyl PABP1 antibody was purchased from Cell Signaling Technology, Danvers, Mass., USA. Methanol was purchased from VWR, Franklin, Mass., USA. 10% Tween 20 was purchased from KPL, Inc., Gaithersburg, Md., USA. Paraformaldehyde (PFA) was purchased from EM Sciences. DRAQ5 was purchased from Biostatus Limited, Leicestershire, UK.
RKO adherent cells were maintained in growth medium (DMEM/Glutamax medium supplemented with 10% v/v heat inactivated fetal bovine serum and 100 units/mL penicillin-streptomycin) and cultured at 37° C. under 5% CO2.
Cell treatment, In Cell Western (ICW) for detection of asymmetric di-methyl PABP1 and DNA content: RKO cells were seeded in assay medium at a concentration of 30,000 cells per mL to a poly-D-lysine coated 384 well culture plate (BD Biosciences 356697) with 50 VL per well. Compound (100 nL) from a 96-well source plate was added directly to 384 well cell plate. Plates were incubated at 37° C., 5% CO2 for 48 hours. After two days of incubation, plates were brought to room temperature outside of the incubator for ten minutes and blotted on paper towels to remove cell media. Cells were fixed for 20 minutes at room temperature by adding 50 ul of 8% PFA followed by aspiration of supernatant with the Biotek EL406 plate washer. Cells were then permeabilized by addition of 50 μL of ice cold 100% methanol directly to each well and incubated for 30 min at room temperature. After 30 min, plates were transferred to a Biotek EL406 plate washer and washed 2 times with 100 μL per well of wash buffer (1×PBS). Next 60 μL per well of Odyssey blocking buffer (Odyssey Buffer with 0.1% Tween 20 (v/v)) were added to each plate and incubated 1 hour at room temperature. Blocking buffer was removed and 20 μL per well of primary antibody was added (asymmetric-methyl PABP1) diluted 1:400 in Odyssey buffer with 0.1% Tween 20 (v/v)) and plates were incubated overnight (16 hours) at 4° C. Plates were washed 5 times with 100 μL per well of wash buffer. Next 20 μL per well of secondary antibody was added (1:800 800 CW goat anti-rabbit IgG (H+L) antibody, 1:2000 DRAQ5 in Odyssey buffer with 0.1% Tween 20 (v/v)) and incubated for 1 hour at room temperature. The plates were washed 5 times with 100 μL per well wash buffer then 2 times with 100 μL per well of water. Plates were allowed to dry at room temperature then imaged on the Licor Odyssey machine which measures integrated intensity at 700 nm and 800 nm wavelengths. Both 700 and 800 channels were scanned.
First, the ratio for each well was determined by:
Each plate included fourteen control wells of DMSO only treatment (minimum inhibition) as well as fourteen control wells for maximum inhibition treated with 20 μM of a reference compound. The average of the ratio values for each control type was calculated and used to determine the percent […] for each test well in the plate. Reference compound was serially diluted three-fold in DMSO for a total of nine test concentrations, beginning at 20 μM.
Percent inhibition was determined and IC50 curves were generated using triplicate wells per concentration of compound. […]

Compound	IC50 [µM]
CCOC(=O)N1CCOC[C@H]1CNc1nc(-c2cc(OC[C@H](O)CNC)ccc2F)nc(-c2c(C)noc2C)c1C [Example 60-3]	< 5
CNCC(O)COc1cccc(-c2nc(-c3c(C)noc3C)cc(N(C)c3cnc(C)nc3)n2)c1 (stereo not shown) [Example 61-1a]	10 to 20
CCOC(=O)N1CCOC[C@@H]1CNc1nc(-c2cc(OC[C@@H](O)CNC)ccc2F)nc(-c2c(C)noc2C)c1C [Example 61-3]	< 5
CCOC(=O)N1CCOC[C@@H]1CNc1nc(-c2cc(OC[C@H](O)CNC)ccc2F)nc(-c2c(C)noc2C)c1C [Example 62-3]	< 5
CNC[C@H](O)COc1ccc(F)c(-c2nc(N[C@H]3CCN(C(=O)OC)C[C@H]3F)c(C)c(-c3c(C)noc3C)n2)c1 [Example 63-3]	< 5
CNC[C@@H](O)COc1ccc(F)c(-c2nc(N[C@H]3CCN(C(=O)OC)C[C@H]3F)c(C)c(-c3c(C)noc3C)n2)c1 [Example 64-3]	< 5
CNC[C@H](O)COc1ccc(Cl)c(-c2nc(N[C@H]3CCN(C(=O)OC)C[C@H]3F)c(C)c(-c3c(C)noc3C)n2)c1 [Example 65-3]	< 5
CNCC(O)COc1cccc(-c2nc(N[C@@H]3CCOC3)c(C)c(-c3c(C)noc3C)n2)c1 (stereo partly shown) [Example 66-1a]	< 5
CNC[C@H](O)COc1ccc(Cl)c(-c2nc(N[C@@H]3CCN(C(=O)OC)[C@@H](C)C3)c(C)c(-c3c(C)noc3C)n2)c1 [Example 66-3]	< 5
CNCC(O)COc1cccc(-c2nc(N[C@H]3C[C@@](C)(O)C3)cc(-c3c(C)noc3C)n2)c1 (stereo partly shown) [Example 67-1a]	10 to 20
CCS(=O)(=O)N1CCC(Nc2nc(-c3cc(OC[C@@H](O)CNC)ccc3Cl)nc(-c3c(C)noc3C)c2C)CC1 [Example 67-3]	< 5
CNCC(O)COc1cccc(-c2nc(-c3c(C)noc3C)cc(N3CCN(CCF)CC3)n2)c1 (stereo not shown) [Example 68-1a]	5 to 10
CNC[C@@H](O)COc1cccc(-c2nc(N[C@@H]3CCN(C4CC4)C[C@@H]3F)c(Cl)c(-c3c(C)noc3C)n2)c1 [Example 68-3]	< 5
CNCC(O)COc1cccc(-c2nc(-c3c(C)noc3C)cc(N3CC[C@H](S(C)(=O)=O)C3)n2)c1 (stereo partly shown) [Example 69-1a]	10 to 20
CNC[C@H](O)COc1ccc(Cl)c(-c2nc(-c3c(C)noc3C)cc(N3CC4(CCN(C5CC5)CC4)C3)n2)c1 [Example 69-3]	< 5
CNCC(O)COc1cc(Cl)cc(-c2nc(-c3ccn4cnnc4c3)c(C)c(N(C)C3CCOCC3)n2)c1 (stereo not shown) [Example 70-1]	10 to 20
CNCC(O)COc1cccc(-c2nc(-c3c(C)noc3C)cc(N3CCN(C(C)=O)C4(CC4)C3)n2)c1 (stereo not shown) [Example 70-1a]	< 5
CCS(=O)(=O)N1CCC(Nc2nc(-c3cccc(OCC(O)CNC)c3)nc(-c3c(C)nsc3C)c2C)CC1 (stereo not shown) [Example 70-3]	< 5
CNCC(O)COc1cccc(-c2nc(-c3c(C)noc3C)c(C)c(N3CC[C@H](N(C)C(C)=O)C3)n2)c1 (stereo partly shown) [Example 71-1a]	< 5
CCS(=O)(=O)N1CCOC[C@@H]1CNc1nc(-c2cccc(OCC(O)CNC)c2)nc(-c2c(C)nsc2C)c1C (stereo partly shown) [Example 71-3]	10 to 20
CNCC(O)COc1cccc(-c2nc(Nc3cnc(OC)nc3)cc(-c3c(C)noc3C)n2)c1 (stereo not shown) [Example 72-1a]	< 5
CNC[C@H](O)COc1ccc(F)c(-c2nc(NC3CCOCC3)c(C)c(-c3c(C)noc3C)n2)c1 [Example 72-3]	< 5
CNC[C@H](O)COc1ccc(F)c(-c2nc(NC3CCOC(C)C3)c(C)c(-c3c(C)noc3C)n2)c1 (stereo partly shown) [Example 73-3]	< 5
CNCC(O)COc1cc(N)cc(-c2nc(NC3CCOCC3)c(C)c(-c3c(C)noc3C)n2)c1 (stereo not shown) [Example 74-1a]	5 to 10
CNC[C@H](O)COc1ccc(Cl)c(-c2nc(-c3c(C)noc3C)c(C)c(N3CCN(C)C(C(F)F)C3)n2)c1 (stereo partly shown) [Example 74-3]	< 5
CNCC(O)COc1cc(OC)cc(-c2nc(NC3CCOCC3)c(C)c(-c3c(C)noc3C)n2)c1 (stereo not shown) [Example 75-1a]	< 5

Compound	IC50 [µM]
CNC[C@H](O)COc1ccc(Cl)c(-c2nc(-c3c(C)noc3C)c(C)c(N3CCC4(CC3)CN(S(C)(=O)=O)C4)n2)c1 [Example 75-3]	< 5
CNCC(O)COc1cc(O)cc(-c2nc(NC3CCOCC3)c(C)c(-c3c(C)noc3C)n2)c1 (stereo not shown) [Example 76-1a]	10 to 20
CNC[C@H](O)COc1ccc(F)c(-c2nc(-c3c(C)noc3C)c(C)c(N3CCC4(CC3)CN(S(C)(=O)=O)C4)n2)c1 [Example 76-3]	< 5
CCOC(=O)N1CCN(c2nc(-c3cccc(OCC(O)CNC)c3)nc(-c3c(C)noc3C)c2C)CC1 (stereo not shown) [Example 77-1a]	< 5
CCN1CCC[C@@H]1CNc1nc(-c2cc(OC[C@@H](O)CNC)ccc2Cl)nc(-c2c(C)noc2C)c1C [Example 77-3]	< 5
CNCC(O)COc1cccc(-c2nc(NCC3CCOCC3)cc(-c3c(C)noc3C)n2)c1 (stereo not shown) [Example 78-1a]	5 to 10
CNCC(O)COc1cccc(-c2nc(-c3c(C)noc3C)cc(N3CCN(CC(F)F)CC3)n2)c1 (stereo not shown) [Example 79-1a]	< 5
CNCC(O)COc1cccc(-c2nc(-c3c(C)noc3C)cc(N3C[C@@H]4C[C@H]3CN4S(C)(=O)=O)n2)c1 (stereo partly shown) [Example 80-1a]	10 to 20
CNCC(O)COc1cccc(-c2nc(-c3c(C)noc3C)cc(N3CCN(C(=O)OC)CC3)n2)c1 (stereo not shown) [Example 81-1a]	< 5
CNC[C@H](O)COc1ccc(Cl)c(-c2nc(NCCC(C)(C)OC)c(C)c(-c3c(C)noc3C)n2)c1 [Example 82-3]	< 5
CNC[C@H](O)COc1ccc(F)c(-c2nc(NCCC(C)(C)OC)c(C)c(-c3c(C)noc3C)n2)c1 [Example 83-3]	< 5
CNCC(O)COc1cccc(-c2nc(-c3c(C)noc3C)c(C)c(N3C[C@@H]4C[C@H]3CN4C)n2)c1 (stereo partly shown) [Example 84-1a]	< 5
CNC[C@H](O)COc1ccc(F)c(-c2nc(-c3c(C)noc3C)c(C)c(N3CCC4(CC3)CN(C(=O)OC)C4)n2)c1 [Example 84-3]	< 5
CNCC(O)COc1cccc(-c2nc(NC3(C)CCOCC3)cc(-c3c(C)noc3C)n2)c1 (stereo not shown) [Example 85-1a]	< 5
CNC[C@H](O)COc1ccc(Cl)c(-c2nc(-c3c(C)noc3C)c(C)c(N3CCC4(CC3)CN(C(=O)OC)C4)n2)c1 [Example 85-3]	< 5
CNCC(O)COc1cccc(-c2nc(-c3c(C)noc3C)c(C)c(N(C)CC3CCOCC3)n2)c1 (stereo not shown) [Example 86-1a]	5 to 10
CNC[C@H](O)COc1ccc(Cl)c(-c2nc(-c3c(C)noc3C)c(C)c(N3Cc4cc(F)cnc4C3)n2)c1 [Example 86-3]	< 5
CNCC(O)COc1cccc(-c2nc(-c3c(C)noc3C)cc(N(C)CC3CCOCC3)n2)c1 (stereo not shown) [Example 87-1a]	< 5
CNC[C@H](O)COc1ccc(Cl)c(-c2nc(-c3c(C)noc3C)c(C)c(N3Cc4cc(Cl)cnc4C3)n2)c1 [Example 87-3]	< 5
CNCC(O)COc1cccc(-c2nc(NCC3CCOCC3)c(C)c(-c3c(C)noc3C)n2)c1 (stereo not shown) [Example 88-1a]	< 5
CCOC(=O)N1CCC(Nc2nc(-c3cc(OC[C@H](O)CNC)ccc3Cl)nc(-c3c(C)noc3C)c2C)CC1 [Example 88-3]	< 5
CNCC(O)COc1cccc(-c2nc(-c3c(C)noc3C)c(C)c(N(C)C3CCN(C(=O)OC)CC3)n2)c1 (stereo not shown) [Example 89-1a]	< 5
CNC[C@H](O)COc1ccc(Cl)c(-c2nc(NC3CCN(C(=O)OC)CC3)c(C)c(-c3c(C)noc3C)n2)c1 [Example 89-3]	< 5
CNCC(O)COc1cccc(-c2nc(-c3c(C)noc3C)cc(N(C)C3CCN(C(=O)OC)CC3)n2)c1 (stereo not shown) [Example 90-1a]	< 5
CNC[C@H](O)COc1ccc(Cl)c(-c2nc(-c3c(C)noc3C)c(C)c(N3Cc4ccncc4C3)n2)c1 [Example 90-3]	< 5
CNCC(O)COc1cccc(-c2nc(-c3c(C)noc3C)cc(N3CCN(C(=O)N(C)C)[C@@H](C)C3)n2)c1 (stereo partly shown) [Example 91-1a]	< 5
